Measured values from patent US20080045504A1, “Benzonitrile Derivatives to Treat Musculoskeletal Frailty” (PFIZER PRODUCTS INC., priority 2004, published 2008).

Key:
[1] = test system: orchiectomized (ORX) immature male rat; assay: Orchiectomized immature rat assay (levator ani and ventral prostate weights); format: in vivo, Sprague Dawley rat; conditions: 4 days, TP 10 mg/kg = 100%, ORX control = 0%; for % TP Control LA: levator ani weight; for % TP Control VP: ventral prostate weight
Method: All animal studies were performed in accordance with the Guide for Care and Use of Laboratory Animals (National Research Council, 1996). Twenty-one day old male Sprague Dawley rats were acquired from Taconic, Inc, Germantown, N.Y. Rats were housed five per cage at standard vivarium conditions ([…], 12-h light/dark cycle), with normal chow diet and tap water ad libitum. At 25 days of age, the rats underwent bilateral orchiectomy surgery (ORX) after sedation with 3-5% Isoflurane. Following the surgery, the animals were treated immediately by daily subcutaneous (s.c.) injection with vehicle (sesame oil), testosterone propionate (TP, 10 mg/kg) and test compounds. The dosage of test compound administered is in mg/kg. At the end of the 4 days of administrations, the animals were sacrificed in a carbon dioxide chamber, the ventral prostate (VP) and levator ani muscle complex (LA) were removed and weighed. The increase in the weights of VP or LA by TP was expressed as 100%, and the ORX control as baseline, 0%; the response of the test compounds was calculated as the percentage increase compared to TP.

[2] = target: T1, recombinant human androgen receptor (hAR) (Homo sapiens, UniProt P10275); assay: Human androgen receptor binding analysis (3H-DHT competitive binding)
T1 construct: made in house; host or cells: baculovirus/Sf9 insect cells (crude extract)
T1 sequence (P10275 1-920): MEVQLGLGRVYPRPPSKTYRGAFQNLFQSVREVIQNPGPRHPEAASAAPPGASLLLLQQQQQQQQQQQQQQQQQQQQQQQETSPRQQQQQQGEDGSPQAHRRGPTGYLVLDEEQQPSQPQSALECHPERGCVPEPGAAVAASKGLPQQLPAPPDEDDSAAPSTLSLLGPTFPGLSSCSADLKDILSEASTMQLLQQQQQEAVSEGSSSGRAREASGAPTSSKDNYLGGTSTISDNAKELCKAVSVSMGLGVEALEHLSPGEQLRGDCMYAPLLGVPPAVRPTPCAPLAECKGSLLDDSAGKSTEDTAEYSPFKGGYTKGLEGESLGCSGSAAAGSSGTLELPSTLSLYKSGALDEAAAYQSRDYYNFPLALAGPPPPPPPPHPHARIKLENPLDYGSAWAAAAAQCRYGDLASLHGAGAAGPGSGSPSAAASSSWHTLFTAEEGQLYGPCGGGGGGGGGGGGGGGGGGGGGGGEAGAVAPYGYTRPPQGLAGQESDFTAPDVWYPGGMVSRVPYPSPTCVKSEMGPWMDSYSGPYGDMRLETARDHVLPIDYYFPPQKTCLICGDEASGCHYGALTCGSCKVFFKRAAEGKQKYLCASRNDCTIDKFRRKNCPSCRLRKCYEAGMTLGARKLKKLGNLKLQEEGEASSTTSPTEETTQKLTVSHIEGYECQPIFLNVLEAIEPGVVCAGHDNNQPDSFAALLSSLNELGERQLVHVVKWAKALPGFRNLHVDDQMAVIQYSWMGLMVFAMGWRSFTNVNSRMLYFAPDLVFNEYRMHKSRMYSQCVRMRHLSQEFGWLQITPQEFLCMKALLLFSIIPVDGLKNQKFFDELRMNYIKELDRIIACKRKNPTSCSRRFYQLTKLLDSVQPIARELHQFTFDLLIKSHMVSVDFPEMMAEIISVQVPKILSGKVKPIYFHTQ
Method: The following is a brief description of the assay that determines the affinity of a compound for the recombinant human androgen receptor (hAR). Competitive binding analysis is performed on baculovirus/Sf9 generated hAR extracts in the presence or absence of differing concentrations of drug and a fixed concentration of ^3H-dihydrotestosterone (^3H-DHT) as tracer. This binding assay method is a modification of a protocol previously described (Chang, et. al. J. Steroid Biochem. 20(1):11-17 1984). Briefly, progressively decreasing concentrations of compounds are incubated in the presence of hAR extract (Chang et al. P.N.A.S. Vol. 89, pp. 5546-5950, 1992), hydroxylapatite and 1 nM ^3H-DHT for one hour at 4° C. Subsequently, the binding reactions are washed three times to completely remove excess unbound ^3H-DHT. hAR bound ^3H-DHT levels are determined in the presence of compounds (=competitive binding) and compared to levels bound when no competitor is present (=maximum binding). Compound binding affinity to the hAR is expressed as the concentration of compound at which one half of the maximum binding is inhibited (the IC50).

| SMILES | % TP Control LA ([1]; 3 mg/kg s.c.) [%] | % TP Control LA ([1]; 10 mg/kg s.c.) [%] | % TP Control LA ([1]; 30 mg/kg s.c.) [%] | % TP Control VP ([1]; 3 mg/kg s.c.) [%] | % TP Control VP ([1]; 10 mg/kg s.c.) [%] | % TP Control VP ([1]; 30 mg/kg s.c.) [%] | IC50 [2] [nM] |
| --- | --- | --- | --- | --- | --- | --- | --- |
| CC[C@@H](C)N(C)c1ccc(C#N)c(C(F)(F)F)c1 [Example 7, 4-((R)-sec-Butyl-methyl-amino)-2-trifluoromethyl-benzonitrile] | 40 | 65 | 89 | 23 | 24 | 39 | 1.09 |
| N#Cc1ccc(N2CCCCCC2)cc1C#N [Example 52, 4-Azepan-1-yl-phthalonitrile] | – | – | – | – | – | – | 5.04 |
| CCCN(CCC)c1cc(F)c(C#N)c(F)c1 [Example 53, 2,6-Difluoro-4-(dipropyl-amino)-benzonitrile] | – | – | – | – | – | – | 4.06 |
